The values below come from the supplement of paper PMC11208160.
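Further: IS621 recombinase and bridge RNA in Escherichia coli cells.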

This data set is described as follows: recombinant barcode read abundance after kanamycin selection (control-corrected) (log10(CPM+1)); higher = more efficient recombination; sequences stand for … in AGTGCAGAGAAAATCGGCCAGTTTTCTCTGCCTGCAGTCCGCATGCCGT…AGATTTATGCAGCGGACTGCCTTTCTCCCAAAGTGATAAACCGGACAGTATCATGGACCGGTTTTCCCGGTAATCCGTATTTGCAAGGTTGGTTTCACT; site = the 11-nt target. Put shortly: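 Targets were screened in pooled form in E. coli against IS621 bridge RNA target-binding loops. Recombination efficiency is based on barcode counts at recombinant junctions in counts per million, averaged and corrected for the control. Numbers are shown as log10(CPM+1), with duplicate plates on chloramphenicol/ampicillin LB agar (control) or chloramphenicol/ampicillin/kanamycin with 0.1 mM IPTG.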
Take “CGTAATGCTTGGGTTCTAACCTGTTGCCT (site CGCAATGCTAG)”: the “recombinant barcode read abundance (log10)” value worked out at 0.234.

For the sequence “CGTAATGCTTGGGTTCTAACCTGTTGCCT (site CGGAATGCTAG)”, the “recombinant barcode read abundance (log10)” value was found to be 0.0453.

For the sequence “CGTAATGCTTGGGTTCTAACCTGTTGCCT (site CGTAATGCTAG)”, the “recombinant barcode read abundance (log10)” value turned out to be 0.0999.

Take “CGTAGACCTTGGGTTCTAACCTGTTGCTA (site CGTAGACCTTA)”: the “recombinant barcode read abundance (log10)” value amounted to 0.216.

With “CGTAGACCTTGGGTTCTAACCTGTTGCTA (site TTATCCGCTAG)”, the “recombinant barcode read abundance (log10)” value amounted to 0.0216.

“CGTAGGACTTGGGTTCTAACCTGTTGCCT (site AGTAGGACTAG)”: the “recombinant barcode read abundance (log10)” value was found to be 0.0846.

In the case of “CGTAGGACTTGGGTTCTAACCTGTTGCCT (site CGTAGGACTAG)”, the “recombinant barcode read abundance (log10)” value is 0.209.

For the sequence “CGTAGGACTTGGGTTCTAACCTGTTGCCT (site GGTAGGACTAG)”, the “recombinant barcode read abundance (log10)” value was determined as 0.0902.

As for “CGTAGGACTTGGGTTCTAACCTGTTGCCT (site TGTAGGACTAG)”, the “recombinant barcode read abundance (log10)” value amounted to 0.0115.

In the case of “CGTATGTCTTGGGTTCTAACCTGTTGCCT (site AGTATGTCTAG)”, the “recombinant barcode read abundance (log10)” value is 0.0814.

Consider “CGTATGTCTTGGGTTCTAACCTGTTGCCT (site CGTATGTCTAG)”, for which the “recombinant barcode read abundance (log10)” value came out at 0.684.

On to “CGTATGTCTTGGGTTCTAACCTGTTGCCT (site GGTATGTCTAG)”, for which the “recombinant barcode read abundance (log10)” value stood at 0.0736.

“CGTATGTCTTGGGTTCTAACCTGTTGCCT (site TGTATGTCTAG)”: the “recombinant barcode read abundance (log10)” value stood at 0.189.

For “CGTCAACCTTGGGTTCTAACCTGTTGCGT (site CGTAAACCTAC)”, the “recombinant barcode read abundance (log10)” value was found to be 0.186.

On to “CGTCAACCTTGGGTTCTAACCTGTTGCGT (site CGTCAACCTAC)”, for which the “recombinant barcode read abundance (log10)” value stood at 0.205.

“CGTCAACCTTGGGTTCTAACCTGTTGCGT (site CGTGAACCTAC)”: the “recombinant barcode read abundance (log10)” value was 0.0619.

Take “CGTCAACCTTGGGTTCTAACCTGTTGCGT (site CGTTAACCTAC)”: the “recombinant barcode read abundance (log10)” value worked out at 0.242.

As to “CGTCATCCTTGGGTTCTAACCTGTTGCCT (site CGTCAACCTAG)”, the “recombinant barcode read abundance (log10)” value was determined as 0.0954.

Turning to “CGTCATCCTTGGGTTCTAACCTGTTGCCT (site CGTCACCCTAG)”, the “recombinant barcode read abundance (log10)” value came to 0.0927.

For “CGTCATCCTTGGGTTCTAACCTGTTGCCT (site CGTCAGCCTAG)”, the “recombinant barcode read abundance (log10)” value was determined as 0.112.

With “CGTCATCCTTGGGTTCTAACCTGTTGCCT (site CGTCATCCTAG)”, the “recombinant barcode read abundance (log10)” value is 0.0294.

“CGTCCACCTTGGGTTCTAACCTGTTGCCT (site AGTCCACCTAG)”: the “recombinant barcode read abundance (log10)” value came to 0.198.

For “CGTCCACCTTGGGTTCTAACCTGTTGCCT (site CGTCCACCTAG)”, the “recombinant barcode read abundance (log10)” value came out at 0.0544.

On to “CGTCCACCTTGGGTTCTAACCTGTTGCCT (site GGTCCACCTAG)”, for which the “recombinant barcode read abundance (log10)” value was determined as 0.1.

For the sequence “CGTCCACCTTGGGTTCTAACCTGTTGCCT (site TGTCCACCTAG)”, the “recombinant barcode read abundance (log10)” value is 0.245.

Turning to “CGTCCTGCTTGGGTTCTAACCTGTTGCCT (site AGTCCTGCTAG)”, the “recombinant barcode read abundance (log10)” value came to 0.

In the case of “CGTCCTGCTTGGGTTCTAACCTGTTGCCT (site CGTCCTGCTAG)”, the “recombinant barcode read abundance (log10)” value amounted to 0.488.

For the sequence “CGTCCTGCTTGGGTTCTAACCTGTTGCCT (site GGTCCTGCTAG)”, the “recombinant barcode read abundance (log10)” value stood at 0.

On to “CGTCCTGCTTGGGTTCTAACCTGTTGCCT (site TGTCCTGCTAG)”, for which the “recombinant barcode read abundance (log10)” value is 0.0535.

For the sequence “CGTCCTTCTTGGGTTCTAACCTGTTGCCT (site AGTCCTTCTAT)”, the “recombinant barcode read abundance (log10)” value worked out at 0.351.

On to “CGTCCTTCTTGGGTTCTAACCTGTTGCCT (site CGTCCTTCTAG)”, for which the “recombinant barcode read abundance (log10)” value came to 0.0421.

Turning to “CGTCGACCTTGGGTTCTAACCTGTTGCCT (site AGTCGACCTAG)”, the “recombinant barcode read abundance (log10)” value is 0.092.

With “CGTCGACCTTGGGTTCTAACCTGTTGCCT (site CGTCGACCTAG)”, the “recombinant barcode read abundance (log10)” value was 0.0617.

With “CGTCGACCTTGGGTTCTAACCTGTTGCCT (site GGTCGACCTAG)”, the “recombinant barcode read abundance (log10)” value worked out at 0.227.

For the sequence “CGTCGACCTTGGGTTCTAACCTGTTGCCT (site TGTCGACCTAG)”, the “recombinant barcode read abundance (log10)” value came out at 0.194.

As for “CGTCTGACTTGGGTTCTAACCTGTTGCCA (site CGACTGACTAG)”, the “recombinant barcode read abundance (log10)” value was 0.158.

Regarding “CGTCTGACTTGGGTTCTAACCTGTTGCCA (site CGTCTGACTTG)”, the “recombinant barcode read abundance (log10)” value was found to be 0.241.

In the case of “CGTGAAGCTTGGGTTCTAACCTGTTGCCT (site CGTATAGCTAG)”, the “recombinant barcode read abundance (log10)” value was 0.183.

As for “CGTGAAGCTTGGGTTCTAACCTGTTGCCT (site CGTGAAGCTAG)”, the “recombinant barcode read abundance (log10)” value turned out to be 0.795.

As for “CGTGCGACTTGGGTTCTAACCTGTTGCAT (site CGTACGACTAT)”, the “recombinant barcode read abundance (log10)” value was 0.0517.

Consider “CGTGCGACTTGGGTTCTAACCTGTTGCAT (site CGTCCGACTAT)”, for which the “recombinant barcode read abundance (log10)” value was found to be 0.0641.

In the case of “CGTGCGACTTGGGTTCTAACCTGTTGCAT (site CGTGCGACTAT)”, the “recombinant barcode read abundance (log10)” value was determined as 0.109.

“CGTGCGACTTGGGTTCTAACCTGTTGCAT (site CGTTCGACTAT)”: the “recombinant barcode read abundance (log10)” value was found to be 0.174.

For the sequence “CGTGGGGCTTGGGTTCTAACCTGTTGCCT (site CGTATGGCTAG)”, the “recombinant barcode read abundance (log10)” value was 0.075.

In the case of “CGTGGGGCTTGGGTTCTAACCTGTTGCCT (site CGTGGGGCTAG)”, the “recombinant barcode read abundance (log10)” value came to 0.156.

On to “CGTTCTCCTTGGGTTCTAACCTGTTGCTA (site CGTTCTCCTTA)”, for which the “recombinant barcode read abundance (log10)” value is 0.637.

Consider “CGTTCTCCTTGGGTTCTAACCTGTTGCTA (site GCAAGGTCTAT)”, for which the “recombinant barcode read abundance (log10)” value was determined as 0.0644.

“CTAAAGCCTTGGGTTCTAACCTGTTGCCT (site CTAAAGCCTAG)”: the “recombinant barcode read abundance (log10)” value came out at 1.25.

As for “CTAAAGCCTTGGGTTCTAACCTGTTGCCT (site CTAAGGCCTAG)”, the “recombinant barcode read abundance (log10)” value came out at 0.2.

On to “CTAAATACTTGGGTTCTAACCTGTTGCCG (site CTAAATACTCG)”, for which the “recombinant barcode read abundance (log10)” value is 0.154.

On to “CTAAATACTTGGGTTCTAACCTGTTGCCG (site CTAAGCACTCG)”, for which the “recombinant barcode read abundance (log10)” value is 0.188.

“CTAAATCCTTGGGTTCTAACCTGTTGCAT (site CTAAATCCTAT)”: the “recombinant barcode read abundance (log10)” value stood at 0.963.

Consider “CTAAATCCTTGGGTTCTAACCTGTTGCAT (site CTAACTCCTAT)”, for which the “recombinant barcode read abundance (log10)” value was determined as 0.0807.

Regarding “CTAAATCCTTGGGTTCTAACCTGTTGCAT (site CTAAGTCCTAT)”, the “recombinant barcode read abundance (log10)” value was found to be 0.0712.

Take “CTAAATCCTTGGGTTCTAACCTGTTGCAT (site CTAATTCCTAT)”: the “recombinant barcode read abundance (log10)” value amounted to 0.232.

For the sequence “CTAACCTCTTGGGTTCTAACCTGTTGCTA (site CTAACCTCTAA)”, the “recombinant barcode read abundance (log10)” value was determined as 0.0338.

For the sequence “CTAACCTCTTGGGTTCTAACCTGTTGCTA (site CTAACCTCTCA)”, the “recombinant barcode read abundance (log10)” value came out at 0.0433.

Take “CTAACCTCTTGGGTTCTAACCTGTTGCTA (site CTAACCTCTGA)”: the “recombinant barcode read abundance (log10)” value was 1.01.

As to “CTAACCTCTTGGGTTCTAACCTGTTGCTA (site CTAACCTCTTA)”, the “recombinant barcode read abundance (log10)” value was 1.42.

As for “CTAACGACTTGGGTTCTAACCTGTTGCGG (site CTAACGACTCC)”, the “recombinant barcode read abundance (log10)” value came to 2.47.

In the case of “CTAACGACTTGGGTTCTAACCTGTTGCGG (site CTAGCGACTCC)”, the “recombinant barcode read abundance (log10)” value was found to be 0.158.

Turning to “CTAACTCCTTGGGTTCTAACCTGTTGCAT (site CTAAATCCTAT)”, the “recombinant barcode read abundance (log10)” value is 0.0865.

As to “CTAACTCCTTGGGTTCTAACCTGTTGCAT (site CTAACTCCTAT)”, the “recombinant barcode read abundance (log10)” value came out at 1.1.

Turning to “CTAACTCCTTGGGTTCTAACCTGTTGCAT (site CTAAGTCCTAT)”, the “recombinant barcode read abundance (log10)” value was determined as 0.0705.

Regarding “CTAACTCCTTGGGTTCTAACCTGTTGCAT (site CTAATTCCTAT)”, the “recombinant barcode read abundance (log10)” value stood at 0.0675.

Regarding “CTAAGAGCTTGGGTTCTAACCTGTTGCCG (site CTAAGAGCTCG)”, the “recombinant barcode read abundance (log10)” value stood at 1.65.

For the sequence “CTAAGAGCTTGGGTTCTAACCTGTTGCCG (site CTAAGAGCTCT)”, the “recombinant barcode read abundance (log10)” value amounted to 0.504.

Turning to “CTAAGCCCTTGGGTTCTAACCTGTTGCGG (site CTAAGCCCTCC)”, the “recombinant barcode read abundance (log10)” value is 1.99.

As to “CTAAGCCCTTGGGTTCTAACCTGTTGCGG (site CTGAGCCCTCG)”, the “recombinant barcode read abundance (log10)” value was found to be 0.0837.

As for “CTAAGCTCTTGGGTTCTAACCTGTTGCTG (site CTAAGCTCTAA)”, the “recombinant barcode read abundance (log10)” value came to 0.259.

Turning to “CTAAGCTCTTGGGTTCTAACCTGTTGCTG (site CTAAGCTCTCA)”, the “recombinant barcode read abundance (log10)” value worked out at 1.25.

For the sequence “CTAAGCTCTTGGGTTCTAACCTGTTGCTG (site CTAAGCTCTGA)”, the “recombinant barcode read abundance (log10)” value was determined as 0.23.

On to “CTAAGCTCTTGGGTTCTAACCTGTTGCTG (site CTAAGCTCTTA)”, for which the “recombinant barcode read abundance (log10)” value stood at 0.349.

“CTAAGGTCTTGGGTTCTAACCTGTTGCAT (site CTAAGGTCTAA)”: the “recombinant barcode read abundance (log10)” value is 0.688.

For “CTAAGGTCTTGGGTTCTAACCTGTTGCAT (site CTAAGGTCTAC)”, the “recombinant barcode read abundance (log10)” value was found to be 0.176.

On to “CTAAGGTCTTGGGTTCTAACCTGTTGCAT (site CTAAGGTCTAG)”, for which the “recombinant barcode read abundance (log10)” value was 0.214.

As for “CTAAGGTCTTGGGTTCTAACCTGTTGCAT (site CTAAGGTCTAT)”, the “recombinant barcode read abundance (log10)” value came to 2.33.
